Reference: patent US6211223A, “Indole derivatives useful in therapy” (Pfizer Inc., priority 1997, dated 2001)

Experiments:
[1] = molecular target: T1, cloned human ETA receptor (Homo sapiens, UniProt P25101); test: Test A: Binding Assay, competition with 125I-ET-1, Binding to ETA Receptors (selectivity versus Binding to ETB Receptors)
T1 sequence (P25101 21-427): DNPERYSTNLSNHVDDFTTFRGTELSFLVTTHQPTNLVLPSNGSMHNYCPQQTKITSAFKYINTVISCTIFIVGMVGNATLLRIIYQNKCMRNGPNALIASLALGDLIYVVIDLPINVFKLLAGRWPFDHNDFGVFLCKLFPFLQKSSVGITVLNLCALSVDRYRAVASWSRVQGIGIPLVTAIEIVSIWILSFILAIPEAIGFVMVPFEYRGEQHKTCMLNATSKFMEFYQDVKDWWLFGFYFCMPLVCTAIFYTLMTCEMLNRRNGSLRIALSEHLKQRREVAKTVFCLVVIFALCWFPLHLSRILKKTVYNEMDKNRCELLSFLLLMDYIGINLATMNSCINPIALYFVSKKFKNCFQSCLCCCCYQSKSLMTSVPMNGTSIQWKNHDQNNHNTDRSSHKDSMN
Procedure: Competition between test compounds and ^125 I-ET-1 binding to human endothelin receptors is determined as follows.
(§1) 25 μl of a 30 pM solution of [^125 I]Tyr^13 ET-1 (specific activity 2,200 Ci/mM) is mixed with 25 μl samples of test compound (final concentrations in the range 0.1 nM-50,000 nM). 200 μl of a solution containing cloned human ETA receptor (0.75 pmoles receptor protein/ml), 50 mM Tris, 0.5 mM CaCl2, 0.1% human serum albumen, 0.1% bacitracin, 0.05% Tween 20, pH 7.4 is added. The solution is mixed at 37° C. for 2 hours. After the incubation, the unbound ligand is separated from receptor bound ligand by filtration with a Brandel cell harvester, followed by three washes of buffer. Filter papers are counted for radioactivity, and the IC50 (the concentration of test compound at which 50% of the radiolabelled compound is unbound) determined for the concentration range tested.
as §1, with “concentration” for “concentrations in the range”, “ETB” for “ETA”, “(0.25” for “(0.75”

neointimal formation = conditions: rats, balloon angioplasty; S. Douglas et al, Circ Res, 75, 1994; cited from earlier work

COc1cc(C)ccc1S(=O)(=O)NC(=O)[C@@H](c1ccc2c(c1)OCO2)c1cn(C)c2cc(C(=O)O)ccc12 [Example 1, (S)-(+)-3-{1-(1,3-Benzodioxol-5-yl)-2-[(2-methoxy-4-methylphenyl)sulfonyl-amino]-2-oxoethyl}-1-methyl-1H-indole-6-carboxylic acid]
selectivity for ETA receptors over ETB receptors ([1]; ETA over ETB): approximately 400 | IC50 (ETA) relative to that of its enantiomer ([1]; fraction of the IC50 (ETA) of the (-)-enantiomer): approximately one quarter | Ki ([1]; human ETA receptor, read-out: binding affinity for ETA receptors (Ki)): 4.18 nM

CCCOc1ccc2c(c1)[C@@H](c1ccc(OC)cc1OCC(=O)O)[C@H](C(=O)O)[C@H]2c1ccc2c(c1)OCO2 [SB-209670]
reduction in neointimal formation relative to control animals (neointimal formation): 50%
